# Assay results from paper PMC11378297, “Discovery and Profiling of New Multimodal Phenylglycinamide Derivatives as Potent Antiseizure and Antinociceptive Drug Candidates” (ACS Chemical Neuroscience, 2024).
# Read-outs that look alike come from different tables or passages of the source.
# Tests used:
# Na+ channel (site 2) = Na+ channel (site 2) radioligand binding; conditions: 100 µM, rat cerebral cortex
# Method: The current body of literature consistently reports that both sodium (Navx) and Cav1.2 calcium ion channels can be involved in the pathogenesis of epilepsy[67]−[69] and neuropathic pain.[70]−[73] […] Therefore, we performed binding and functional studies toward sodium (site 2) and calcium Cav1.2 channels at concentrations of 10 μM for (R)-31−(R)-33.
# (§1) Using previously described testing methodologies, binding/functional tests were conducted on a commercial basis at Eurofins Laboratories (Poitiers, France) and Eurofins Panlabs Discovery Services Taiwan, Ltd. (New Taipei City, Taiwan); see Table S9 for more information.
# (§2) Table S9. Radioligand binding and functional assays. […]
# (§3) Assays were performed commercially in Eurofins Laboratories (Poitiers, France) or Eurofins Panlabs Discovery Services
# (§4) Taiwan, Ltd. (New Taipei City, Taiwan).
# [1] = system: Cav1.2 (dihydropyridine site); assay: Cav1.2 (dihydropyridine site, antagonist radioligand) binding; conditions: 100 µM, rat cerebral cortex
# Method: (§5) Further in vitro functional studies confirmed TRPV1 antagonist activity for (R)-31–(R)-33.
# (§6) Table S2. In vitro TRPV1 channel antagonist activity for compounds 3–12 (series A), 21–24 (series B) in […]
# (§7) Cmpd % Inhibition of control Cmpd % Inhibition of control agonist responsea agonist responsea
# (§8) *Source: human recombinant CHO cells. a Results showing activity higher than 50% are considered to represent significant […]
# (§9) around the control level. Assays were performed commercially in Eurofins Laboratories (Poitiers, France).
# (§10) Binding studies Source % Inhibition of control specific binding […]
# (§11) Na+ channel (site 2) Rat cerebral 94.9 (100)
# (§12) Cav1.2 (dihydropyridine Rat cerebral 58.0 (100) site, antagonist radioligand) cortex
# (§13) Functional studies Source % Inhibition of control specific binding […]
# (§14) (antagonist effect) CHO cells
# (§15) (agonist effect) CHO cells
# (§16) Table S9. Radioligand binding and functional assays.
# (§17) Cav1.2 (L-type) (h) calcium ion channel cell-based antagonist calcium flux assay TRPV1 (VR1) (h) (antagonist effect)
# (§18) TRPA1 (h) transient potential ion channel cell based antagonist calcium flux assay TRPM8 (h) (antagonist effect)
# (§19) Cav1.2 (L-type) (dihydropyridine site, antagonist radioligand) […]
# (§20) Assays were performed commercially in Eurofins Laboratories (Poitiers, France) or Eurofins Panlabs Discovery Services Taiwan, Ltd. (New Taipei City, Taiwan).
# TRPV1 (VR1) (h) = biological target: T1, TRPV1 (VR1) (h) (Homo sapiens, UniProt Q8NER1); assay: TRPV1 (VR1) (h) (antagonist effect); type: cell-based; conditions: 100 µM, human recombinant CHO cells
# T1 construct: host or cells: CHO cells
# Method: as §5, §1, §2
# TRPV1 (VR1) (h) (antagonist effect) […]
# as §3, §4
# [2] = system: maximal electroshock (MES) seizures, mice; conditions: reference ASMs, i.p., pretreatment time 0.5 h (LCS, VPA) or 1.0 h (LEV, CBD), literature or own experiments; cited from earlier work
# CB1 (h) = biological target: T2, CB1 (h) (Homo sapiens, UniProt P21554); assay: CB1 (h) (agonist effect); type: cell-based; conditions: human recombinant CHO cells, read-out: % Inhibition of control specific binding (functional study, agonist effect)
# T2 construct: host or cells: CHO cells
# Method: as §5, §6, §7, §8, §9, §10, §11, §12, §13, §14, §15, §16, §17, §18, §19, §20
# [3] = PAMPA (Precoated PAMPA Plate System Gentest) passive permeability; type: in vitro ADME; conditions: passive blood–brain barrier permeability model
# [4] = system: 6 Hz (32 mA) seizures, mice; assay: 6 Hz (32 mA) psychomotor seizure test; type: in vivo; conditions: Mus musculus, ip, 100 mg/kg i.p., 0.5 h;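 further: compounds given as one i.p. dose suspended in 1% aqueous Tween 80, with the 6 Hz (32 mA) model considered to reflect focal epilepsy in humans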
# Excerpt: (§21) Both the aforementioned parameters (ED50 and TD50) enabled the calculation of protective indexes (PIs), which reflect the comparative the benefit–risk ratio of these experimental therapeutic agents.
# (§22) Four mice per group were randomly assigned to each experimental group in the initial screening experiments (each mouse was used just once). Four groups, each with eight animals, received injections of different doses of the investigated substances in order to determine the ED50 or TD50 values. The PIs for the compounds investigated and reference ASMs were calculated by dividing the TD50 value, as determined in the chimney test by the respective ED50 value, as determined in the MES, scPTZ, or 6 Hz (32 mA or 44 mA) tests (PI = TD50/ED50). The PIs are a measure of the potential therapeutic window of the tested agent.
# (§23) All substances were suspended in Tween 80 (1% aqueous solution) and administered i.p. as a single injection at a volume of 10 mL/kg. On each day of experimentation, fresh solutions were prepared.
# [5] = system: maximal electroshock (MES) seizures, mice; assay: maximal electroshock (MES) seizure test; type: in vivo; conditions: Mus musculus, ip; 100 mg/kg i.p., 0.5 h, mice; read-out: MES: number of mice protected/number of mice tested (converted)
# Excerpt: as §21, §22, §23
# [6] = system: 6 Hz (32 mA) seizures, mice; conditions: reference ASMs, i.p., pretreatment time 0.5 h (LCS, VPA) or 1.0 h (LEV, CBD); cited from earlier work
# [7] = system: 6 Hz (44 mA) seizures, mice; conditions: reference ASMs, i.p., pretreatment time 0.5 h (LCS, VPA) or 1.0 h (LEV, CBD); cited from earlier work
# body temperature, mice = assay: capsaicin-induced hypothermia test / rectal temperature; type: in vivo, mouse
# Method: In this study, we used the capsaicin-induced hypothermia model in mice to evaluate the effect of eutomers (R)-31, (R)-32, and (R)-33 on body temperature and to provide more data related to their on-target activity (i.e., antagonism of TRPV1) (Figure S5A–D). Capsaicin given i.p. at a dose of 5 mg/kg produced a marked decrease in rectal temperature at 15 min post injection (p < 0.0001). The temperature returned to normal values within 30–60 min after capsaicin injection. […] None of the tested compounds reversed the capsaicin-induced hypothermia.
# The changes in body temperature in the capsaicin-induced hypothermia model were evaluated as described previously. Eutomers (R)-31, (R)-32, and (R)-33 were suspended in a 1% Tween 80 and administered i.p. 15 min before injection of capsaicin (5 mg/kg, i.p.). The corresponding vehicles (1% DMSO or 1% Tween 80) were given to the control animals. Using an electronic thermometer (ThermoWorks, Alpine, Utah, USA), changes in the mouse’s rectal temperature were recorded by inserting the rectal probe approximately 2 cm into the mouse’s rectum. After −15, 0, 15, 30, 60, 90, 120, and 180 min, the measurements were collected. Subsequently, the variations in rectal temperature between the baseline ([…] for the groups receiving compounds and BCTC in conjunction with the vehicle, or […] for the groups receiving the vehicle, compounds, and BCTC in combination with the capsaicin) and the corresponding time point ΔT (°C) were computed and examined.
# Figure S5. Acute effects of BCTC (A), (R)-31 (B), (R)-32 (C), and (R)-33 (D) on rectal temperature in the capsaicin-induced test in mice. Capsaicin (CPS) or vehicle (1% DMSO) were injected i.p. at 0 min, as indicated by the arrows.
# BCTC, (R)-31, (R)-32, and (R)-33 were suspended in 1% Tween 80 and administered i.p. 15 min before CPS or vehicle injection. The temperature was measured at -15, 0, 15, 30, 60, 90, 120, and 180 min. Since body temperature returned to control values 60 min after CPS injection, subsequent measurements are not shown.
# Data are presented as the mean differences (ΔT) in rectal temperature from 0 to -15 min (time point 0 min), from 15 to 0 min (time point 15 min), from 30 to 0 min (time point 30 min), and from 60 to 0 min (time point 60 min); n = 6–8 animals/group. Statistical significance was evaluated using one-way ANOVA with Tukey’s post hoc test: […]
# (1 picture or pasted object on this page, not shown here)
# [8] = mice, read-out: 6 Hz (32 mA): number of mice protected/number of mice tested (converted)
# [9] = read-out: % Inhibition of control agonist response
# [10] = four mice, read-out: protection in the 6 Hz (32 mA) test
# T1 sequence (Q8NER1 whole entry): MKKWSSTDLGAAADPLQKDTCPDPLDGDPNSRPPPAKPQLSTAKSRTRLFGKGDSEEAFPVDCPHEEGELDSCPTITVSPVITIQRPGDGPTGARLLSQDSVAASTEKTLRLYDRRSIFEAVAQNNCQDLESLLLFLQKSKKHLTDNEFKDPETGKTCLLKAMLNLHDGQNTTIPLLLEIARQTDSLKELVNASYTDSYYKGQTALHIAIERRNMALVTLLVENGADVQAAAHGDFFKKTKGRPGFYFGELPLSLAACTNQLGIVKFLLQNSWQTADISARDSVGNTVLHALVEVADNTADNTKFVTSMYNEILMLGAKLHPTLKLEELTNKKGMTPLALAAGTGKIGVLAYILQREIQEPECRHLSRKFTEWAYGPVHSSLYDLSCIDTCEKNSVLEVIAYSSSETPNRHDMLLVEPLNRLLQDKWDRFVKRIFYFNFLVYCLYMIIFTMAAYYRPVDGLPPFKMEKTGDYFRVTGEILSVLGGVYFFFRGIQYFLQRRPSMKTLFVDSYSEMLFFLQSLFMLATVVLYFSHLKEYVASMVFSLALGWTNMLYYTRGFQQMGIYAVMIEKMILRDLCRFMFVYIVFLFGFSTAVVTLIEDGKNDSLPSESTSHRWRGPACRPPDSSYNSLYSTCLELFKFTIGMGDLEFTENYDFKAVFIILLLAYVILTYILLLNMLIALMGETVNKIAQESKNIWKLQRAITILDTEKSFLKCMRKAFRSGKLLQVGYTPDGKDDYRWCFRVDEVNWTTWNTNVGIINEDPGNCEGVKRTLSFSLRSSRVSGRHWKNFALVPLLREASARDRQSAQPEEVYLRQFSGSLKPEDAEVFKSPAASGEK
# T2 sequence (P21554 whole entry): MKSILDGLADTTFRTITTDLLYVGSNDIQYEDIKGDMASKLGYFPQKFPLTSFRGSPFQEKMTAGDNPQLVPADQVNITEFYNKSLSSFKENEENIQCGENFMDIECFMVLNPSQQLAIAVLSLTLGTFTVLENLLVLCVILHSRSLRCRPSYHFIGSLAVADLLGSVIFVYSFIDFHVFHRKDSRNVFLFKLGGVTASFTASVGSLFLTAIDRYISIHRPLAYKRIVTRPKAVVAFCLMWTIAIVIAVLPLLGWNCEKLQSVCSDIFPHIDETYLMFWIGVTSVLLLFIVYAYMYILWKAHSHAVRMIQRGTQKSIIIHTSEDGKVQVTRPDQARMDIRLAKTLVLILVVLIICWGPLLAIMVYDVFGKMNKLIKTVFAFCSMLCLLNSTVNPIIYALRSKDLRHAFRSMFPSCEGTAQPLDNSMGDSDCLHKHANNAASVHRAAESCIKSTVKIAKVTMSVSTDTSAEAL
Compound,"responders at 100 mg/kg [4, 8] [%]",responders at 100 mg/kg [5] [%],melting point [°C],inhibition at 100 µM (TRPV1 (VR1) (h); [9]) [%],"responders at 100 mg/kg [4, 10] [%]",also measured
"C=C(C)[C@@H]1CCC(C)=C[C@H]1c1c(O)cc(CCCCC)cc1O [CBD, cannabidiol]",–,–,–,–,–,"% inhibition of control specific binding (Na+ channel (site 2)): 94.9%; % inhibition of control specific binding [1]: 58.0%; inhibition at 100 µM (TRPV1 (VR1) (h); read-out: % Inhibition of control specific binding (functional study, antagonist effect)): 47.8%; ED50 MES [2]: 80.0 mg/kg; inhibition at 100 µM (CB1 (h)): 103%"
"Cn1c(=O)c2c(ncn2C)n(C)c1=O [caffeine, reference compound]",–,–,–,–,–,permeability coefficient (Pe) [3]: 3.46 × 10^–6 cm/s
"O=C(NC(C(=O)N1CCN(c2cccc(C(F)(F)F)c2)CC1)c1ccccc1)c1ccc(C(F)(F)F)cc1 (stereo not shown) [Compound 9, N-(2-Oxo-1-phenyl-2-(4-(3-(trifluoromethyl)phenyl)piperazin-1-yl)ethyl)-4-(trifluoromethyl) Benzamide]",0,0,103.4 to 104.2,6.2,–,–
"O=C(NC(C(=O)N1CCN(c2cccc(C(F)(F)F)c2)CC1)c1ccccc1)c1ccccc1C(F)(F)F (stereo not shown) [Compound 7, N-(2-Oxo-1-phenyl-2-(4-(3-(trifluoromethyl)phenyl)piperazin-1-yl)ethyl)-2 (trifluoromethyl)benzamide]",0,0,165.2 to 166.7,-2.6,–,–
"CC(=O)NC(C(=O)NC1CCN(c2cccc(OC(F)(F)F)c2)C1)c1ccccc1 (stereo not shown) [Compound 23, 2-Acetamido-2-phenyl-N-(1-(3-(trifluoromethoxy)phenyl)pyrrolidin-3-yl)acetamide]",50,0,173.1 to 174.2,-2.7,50,–
"O=C(NC(C(=O)N1CCN(c2cccc(C(F)(F)F)c2)CC1)c1ccccc1)c1cccc(Cl)c1 (stereo not shown) [Compound 5, 3-Chloro-N-(2-oxo-1-phenyl-2-(4-(3-(trifluoromethyl)phenyl)piperazin-1-yl)ethyl) Benzamide]",50,0,151.7 to 152.4,3.8,50,–
"COC[C@@H](NC(C)=O)C(=O)NCc1ccccc1 [LCS, lacosamide]",–,–,–,–,–,ED50 6 Hz (32 mA) [6]: 5.3 mg/kg; ED50 6 Hz (44 mA) [7]: 6.9 mg/kg; ED50 MES [2]: 9.2 mg/kg
"O=C(NC(C(=O)N1CCN(c2cccc(C(F)(F)F)c2)CC1)c1ccccc1)c1ccccc1 (stereo not shown) [Compound 3, N-(2-Oxo-1-phenyl-2-(4-(3-(trifluoromethyl)phenyl)piperazin-1-yl)ethyl)benzamide]",50,0,140.9 to 141.2,11.4,50,–
"CC(C)(C)c1ccc(NC(=O)N2CCN(c3ncccc3Cl)CC2)cc1 [BCTC, reference compound]",–,–,–,–,–,"effect on capsaicin-induced hypothermia (body temperature, mice; 20 mg/kg with capsaicin 5 mg/kg i.p., p < 0.0001 at 15 and 30 min): alleviated the capsaicin-induced hypothermia; effect on body temperature, administered alone (body temperature, mice; 20 mg/kg, 15 min after injection, p < 0.05): caused a significant increase in body temperature"
"O=C(NC(C(=O)N1CCN(c2cccc(C(F)(F)F)c2)CC1)c1ccccc1)c1ccc(Cl)cc1 (stereo not shown) [Compound 6, 4-Chloro-N-(2-oxo-1-phenyl-2-(4-(3-(trifluoromethyl)phenyl)piperazin-1-yl)ethyl) Benzamide]",25,0,165.2 to 166.7,6.8,25,–
"O=C(NC(C(=O)N1CCN(c2cccc(C(F)(F)F)c2)CC1)c1ccccc1)c1cc(C(F)(F)F)ccn1 (stereo not shown) [Compound 11, N-(2-Oxo-1-phenyl-2-(4-(3-(trifluoromethyl)phenyl)piperazin-1-yl)ethyl)-4-(trifluoromethyl)picolinamide]",50,0,101.2 to 102.4,-4.2,–,–
